Test results as given in patent publication US20250298019A1, “BORRELIA BURGDORFERI PEPTIDOGLYCAN DETECTION METHODS” (VIRGINIA TECH INTELLECTUAL PROPERTIES, INC., priority 2021, published 2025).

Test system: B. burgdorferi 5A11
Assay: Growth of B. burgdorferi in BSK-II medium with GlcNAc replaced by other N-acetylated sugars
Assay type: cell-based, Borrelia burgdorferi
Conditions: FIG. 7; for ability to support growth in the absence of GlcNAc: GlcNAc-free BSK-II supplemented with the sugar, 37° C., 5% CO2

Structure (SMILES)	ability to support growth in the absence of GlcNAc	replication rate and final density compared with GlcNAc (5A11 in BSK-II complete media supplemented with the sugar, three independent cultures)
CC(=O)N[C@H]1C(O)O[C@H](CO)[C@H](O)[C@@H]1O (stereo partly drawn) [GalNAc, N-acetylgalactosamine]	support growth in the absence of GlcNAc	–
CC(=O)N[C@@H]1C(O)O[C@H](CO)[C@@H](O)[C@@H]1O (stereo partly drawn) [ManNAc, N-acetylmannosamine]	support growth in the absence of GlcNAc	replicated at a similar rate and reached a comparable final density to GlcNAc
